Measurements from ChEMBL document CHEMBL5244211, “Current anti-diabetic agents and their molecular targets: A review” (Eur J Med Chem, 2018).

What was measured:
[1] = molecular target: T1, Free fatty acid receptor 4 (Homo sapiens, UniProt Q5NUL3); assay: Agonist activity at FFA4 (unknown origin) expressed in CHO-K1 cells by BRET assay; type: cell-based
T1 sequence (Q5NUL3 whole entry): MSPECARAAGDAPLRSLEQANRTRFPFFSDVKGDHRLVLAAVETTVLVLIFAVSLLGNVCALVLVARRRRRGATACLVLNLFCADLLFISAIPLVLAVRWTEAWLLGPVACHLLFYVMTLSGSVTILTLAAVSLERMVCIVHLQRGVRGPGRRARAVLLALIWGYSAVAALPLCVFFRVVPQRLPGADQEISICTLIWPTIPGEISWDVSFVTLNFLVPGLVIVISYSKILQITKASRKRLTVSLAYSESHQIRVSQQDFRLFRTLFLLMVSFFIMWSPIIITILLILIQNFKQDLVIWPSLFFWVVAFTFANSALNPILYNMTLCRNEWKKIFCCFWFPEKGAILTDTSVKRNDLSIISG

[2] = organism: Homo sapiens; assay: Selectivity ratio of IC50 for inhibition of TC-PTP (unknown origin) to IC50 for inhibition of PTP1B (unknown origin)
[3] = molecular target: T2, Tyrosine-protein phosphatase non-receptor type 1 (Homo sapiens, UniProt P18031); assay: Inhibition of PTP1B (unknown origin) using pNPP as substrate for 2 mins by spectroscopic analysis
T2 sequence (P18031 whole entry): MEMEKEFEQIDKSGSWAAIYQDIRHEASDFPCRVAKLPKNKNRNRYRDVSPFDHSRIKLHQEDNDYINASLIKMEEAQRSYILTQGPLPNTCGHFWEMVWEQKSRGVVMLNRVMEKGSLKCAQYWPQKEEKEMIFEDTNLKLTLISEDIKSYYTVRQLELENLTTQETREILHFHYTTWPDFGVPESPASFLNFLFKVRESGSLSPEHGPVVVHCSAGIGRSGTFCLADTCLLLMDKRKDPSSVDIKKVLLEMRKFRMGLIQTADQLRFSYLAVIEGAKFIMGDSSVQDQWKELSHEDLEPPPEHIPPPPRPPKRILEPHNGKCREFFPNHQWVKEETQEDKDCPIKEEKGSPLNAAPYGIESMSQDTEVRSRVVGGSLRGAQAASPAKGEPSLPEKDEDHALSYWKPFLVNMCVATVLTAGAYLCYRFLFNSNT

[4] = molecular target: T2, Tyrosine-protein phosphatase non-receptor type 1; assay: Competitive inhibition of PTP1B (unknown origin) assessed as inhibition constant using pNPP as substrate by Michaelis-Menten based analysis
[5] = molecular target: T3, Fructose-1,6-bisphosphatase 1 (Homo sapiens, UniProt P09467); assay: Inhibition of FBPase (unknown origin)
T3 sequence (P09467 whole entry): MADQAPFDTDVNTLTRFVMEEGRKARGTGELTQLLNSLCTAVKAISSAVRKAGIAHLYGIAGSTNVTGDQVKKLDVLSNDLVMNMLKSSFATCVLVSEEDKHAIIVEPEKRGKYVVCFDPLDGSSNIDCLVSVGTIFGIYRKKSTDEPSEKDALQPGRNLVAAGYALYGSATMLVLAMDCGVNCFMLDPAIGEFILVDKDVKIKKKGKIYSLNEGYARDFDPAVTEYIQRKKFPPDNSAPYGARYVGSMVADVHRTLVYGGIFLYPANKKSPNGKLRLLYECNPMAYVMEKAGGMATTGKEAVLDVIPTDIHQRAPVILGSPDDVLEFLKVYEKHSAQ

[6] = molecular target: T4, Tyrosine-protein phosphatase non-receptor type 2 (Homo sapiens, UniProt P17706); assay: Inhibition of TC-PTP (unknown origin) using pNPP as substrate incubated for 5 mins by absorbance based analysis
T4 sequence (P17706 whole entry): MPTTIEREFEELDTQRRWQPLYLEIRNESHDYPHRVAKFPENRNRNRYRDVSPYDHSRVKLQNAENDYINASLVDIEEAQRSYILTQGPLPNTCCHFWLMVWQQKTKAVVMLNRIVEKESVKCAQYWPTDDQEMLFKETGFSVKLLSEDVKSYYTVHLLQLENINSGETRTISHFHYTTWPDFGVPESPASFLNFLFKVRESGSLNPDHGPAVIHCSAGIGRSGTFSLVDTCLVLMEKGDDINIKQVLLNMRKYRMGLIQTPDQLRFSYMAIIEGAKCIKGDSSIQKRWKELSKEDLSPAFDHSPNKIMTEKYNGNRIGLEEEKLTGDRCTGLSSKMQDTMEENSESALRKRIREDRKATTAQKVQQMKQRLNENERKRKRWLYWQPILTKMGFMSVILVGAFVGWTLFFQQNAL

[7] = organism: Homo sapiens; assay: Selectivity ratio of IC50 for inhibition of PTP1B (unknown origin) to IC50 for inhibition of TC-PTP (unknown origin)
[8] = Inhibition of calf lens ALR2 using glyceraldehyde as substrate incubated for 5 mins in presence of NADPH by UV-spectrophotometric analysis; type: tissue-based, Bos taurus
[9] = Inhibition of bovine kidney ALR1 in presence of NADPH by UV spectrophotometric analysis; type: tissue-based, Bos taurus
[10] = Inhibition of Calf ALR2 in presence of NADPH by UV spectrophotometric analysis; design: species or system Bos taurus
[11] = molecular target: Glucagon receptor (Rattus norvegicus, UniProt P30082); assay: Displacement of [125I]-glucagon from GCGR in Sprague-Dawley rat liver assessed as decrease in glucagon-stimulated CAMP production incubated for 45 mins by scintillation counter analysis; type: tissue-based
Sequence of Glucagon receptor (P30082 whole entry): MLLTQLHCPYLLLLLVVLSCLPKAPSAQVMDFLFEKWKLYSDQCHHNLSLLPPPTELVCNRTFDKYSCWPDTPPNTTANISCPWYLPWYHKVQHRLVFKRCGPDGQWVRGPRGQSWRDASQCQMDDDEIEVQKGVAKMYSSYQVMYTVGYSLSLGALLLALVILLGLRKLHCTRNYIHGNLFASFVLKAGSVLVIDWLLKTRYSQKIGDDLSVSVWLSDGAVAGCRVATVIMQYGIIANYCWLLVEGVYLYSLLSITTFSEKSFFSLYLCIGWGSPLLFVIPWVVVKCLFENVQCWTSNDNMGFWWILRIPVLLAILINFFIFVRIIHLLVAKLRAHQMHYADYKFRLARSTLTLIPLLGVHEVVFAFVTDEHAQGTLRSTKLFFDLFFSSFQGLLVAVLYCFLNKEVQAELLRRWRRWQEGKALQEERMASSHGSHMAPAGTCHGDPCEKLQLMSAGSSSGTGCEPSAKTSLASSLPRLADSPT

[12] = molecular target: Dipeptidyl peptidase 4 (Homo sapiens, UniProt P27487); assay: Inhibition of DPP4 (unknown origin)
Sequence of Dipeptidyl peptidase 4 (P27487 whole entry): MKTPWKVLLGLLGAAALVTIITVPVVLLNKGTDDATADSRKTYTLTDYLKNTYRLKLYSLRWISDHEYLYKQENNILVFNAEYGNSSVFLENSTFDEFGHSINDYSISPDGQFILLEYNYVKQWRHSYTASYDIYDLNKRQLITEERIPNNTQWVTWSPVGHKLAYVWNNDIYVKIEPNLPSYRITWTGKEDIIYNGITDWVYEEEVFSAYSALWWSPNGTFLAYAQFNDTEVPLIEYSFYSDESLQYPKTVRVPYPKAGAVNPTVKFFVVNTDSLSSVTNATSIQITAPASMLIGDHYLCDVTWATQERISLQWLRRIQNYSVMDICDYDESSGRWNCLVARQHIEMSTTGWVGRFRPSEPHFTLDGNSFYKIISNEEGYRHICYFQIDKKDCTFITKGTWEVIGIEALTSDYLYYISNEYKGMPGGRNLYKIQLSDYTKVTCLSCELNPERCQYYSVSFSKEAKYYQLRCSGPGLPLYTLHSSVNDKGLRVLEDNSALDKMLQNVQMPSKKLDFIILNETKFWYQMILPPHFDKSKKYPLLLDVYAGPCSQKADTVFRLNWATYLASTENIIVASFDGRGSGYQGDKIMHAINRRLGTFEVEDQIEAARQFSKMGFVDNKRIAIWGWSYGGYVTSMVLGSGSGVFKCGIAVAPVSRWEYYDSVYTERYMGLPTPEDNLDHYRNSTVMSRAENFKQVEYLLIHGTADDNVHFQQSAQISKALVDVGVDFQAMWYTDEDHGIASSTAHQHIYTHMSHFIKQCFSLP

[13] = molecular target: T1, Free fatty acid receptor 4; assay: Agonist activity at human GPR120 expressed in CHO cells assessed as intracellular phosphorylated ERK incubated for 16 to 18 hrs by AlphaScreen SureFire assay; type: cell-based
[14] = molecular target: T5, Free fatty acid receptor 4 (Mus musculus) (UniProt Q7TMA4); assay: In vivo agonist activity at GPR120 in C57BL/6 mouse assessed as reduction in glucose AUC levels at 30 mg/kg,po and measured upto 120 mins by OGTT test; type: functional, organism-based; design: scale not given: the % may be the effect or the level left
T5 sequence (whole entry): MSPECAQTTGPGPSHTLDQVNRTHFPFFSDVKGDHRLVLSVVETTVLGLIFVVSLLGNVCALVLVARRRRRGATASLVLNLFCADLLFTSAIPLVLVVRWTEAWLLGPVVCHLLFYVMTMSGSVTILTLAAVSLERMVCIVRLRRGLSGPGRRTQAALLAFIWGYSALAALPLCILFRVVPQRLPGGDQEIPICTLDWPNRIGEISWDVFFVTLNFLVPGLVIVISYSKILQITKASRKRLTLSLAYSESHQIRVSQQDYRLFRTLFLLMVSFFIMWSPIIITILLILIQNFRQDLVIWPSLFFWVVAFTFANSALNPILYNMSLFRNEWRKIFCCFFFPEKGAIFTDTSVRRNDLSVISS

[15] = molecular target: T6, Glucose-dependent insulinotropic receptor (Homo sapiens, UniProt Q8TDV5); assay: Agonist activity at human GPR119 expressed in HEK293S cells assessed as increase in intracellular cAMP level incubated for 45 mins by HTRF analysis; type: cell-based
T6 sequence (Q8TDV5 whole entry): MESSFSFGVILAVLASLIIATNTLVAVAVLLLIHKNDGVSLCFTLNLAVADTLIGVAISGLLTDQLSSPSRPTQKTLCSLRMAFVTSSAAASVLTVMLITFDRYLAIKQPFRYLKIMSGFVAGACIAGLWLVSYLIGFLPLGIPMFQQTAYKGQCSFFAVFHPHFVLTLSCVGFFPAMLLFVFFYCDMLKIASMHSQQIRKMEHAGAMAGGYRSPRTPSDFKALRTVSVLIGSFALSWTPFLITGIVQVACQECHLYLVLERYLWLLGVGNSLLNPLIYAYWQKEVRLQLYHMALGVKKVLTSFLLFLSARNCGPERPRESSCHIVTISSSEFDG

[16] = molecular target: T2, Tyrosine-protein phosphatase non-receptor type 1; assay: Inhibition of human GST-tagged PTP1B expressed in Escherichia coli using pNPP as substrate by spectroscopic analysis
[17] = molecular target: T2, Tyrosine-protein phosphatase non-receptor type 1; assay: Inhibition of PTP1B (unknown origin)
[18] = molecular target: T6, Glucose-dependent insulinotropic receptor; assay: Agonist activity at human GPR119 expressed in CHO-K1 cells assessed as increase in intracellular cAMP level incubated for 5 mins by fluorescence analysis; type: cell-based

**Q.** For O=C(O)CCCc1ccc(OCC2=C(c3ccc(C4CC4)cc3)CCCC2)cc1, which EC50 [1] is on record?
**A.** The EC50 was 0.05 µM.

**Q.** With C[C@H](CCC(=O)O)[C@H]1CCC2C3CC=C4C(C)(C)c5c(cnn5-c5ccc(F)cc5)C[C@]4(C)C3CC[C@@]21C (stereo not given in full) as the molecule, how does the Ratio IC50 [2] read?
**A.** Its Ratio IC50 is 11.

**Q.** And the IC50 [3]?
**A.** The IC50 was 0.42 µM.

**Q.** And the Ki [4]?
**A.** Its Ki is 0.26 µM.

**Q.** With Cc1ccc(-c2nnc(-c3cccc(NC(=O)CCCCO)c3)o2)cc1 as the molecule, how does the IC50 [5] read?
**A.** Its IC50 is 5.61 µM.

**Q.** Which results are given for O=C(c1cccc(CN2CCCN(Cc3cccc(C(=O)C(F)(F)P(=O)(O)O)c3)CCN(Cc3cccc(C(=O)C(F)(F)P(=O)(O)O)c3)CCCN(Cc3cccc(C(=O)C(F)(F)P(=O)(O)O)c3)CC2)c1)C(F)(F)P(=O)(O)O?
**A.** IC50 [6]: 0.075 µM; Ratio IC50 [7]: 14

**Q.** With Cc1ccc(N2C(=O)/C(=C/c3cn(-c4ccccc4)nc3-c3ccc([N+](=O)[O-])cc3)SC2=S)cc1 as the molecule, how does the IC50 [8] read?
**A.** Its IC50 is 2.34 µM.

**Q.** For CCCCNCn1nc(-c2cc3ccccc3oc2=O)oc1=S, which IC50 [9] is on record?
**A.** The IC50 was 3.36 µM.

**Q.** And the IC50 [10]?
**A.** The IC50 was 0.31 µM.

**Q.** Which IC50 [11] does the source give for CCCc1c(C(C)C)cc(C(C)C)c([C@@H](C)O)c1-c1ccc(F)cc1 here?
**A.** Its IC50 is 0.11 µM.

**Q.** Which IC50 [5] does the source give for Cc1ccc(-c2nnc(-c3cccc(NC(=O)CCCCCCO)c3)o2)cc1 here?
**A.** The IC50 was 1.32 µM.

**Q.** With CC#CCn1c(N2CCC[C@@H](N)C2)nc2c(C)c(=O)n(Cc3nc(C)c4c(Cl)cccc4n3)c(=O)n21 as the molecule, how does the IC50 [12] read?
**A.** The IC50 was 0.0007 µM.

**Q.** Which results are given for O=C(O)[C@H]1C[C@@H]1CCC12CCC(c3cccc(Oc4ccccc4)c3)(CC1)O2?
**A.** EC50 [13]: 0.22 µM; Activity [14]: 60%

**Q.** With CSc1ccc(COc2ccc(-c3ncc(C)c(N4CCN(c5ncc(OCC=C(C)C)cn5)CC4)n3)cc2)cc1 as the molecule, how does the EC50 [15] read?
**A.** Its EC50 is 0.024 µM.

**Q.** With COc1cc(C(=O)c2c(CBr)cc(OC)c(OC)c2Br)c(Br)c(Br)c1OC as the molecule, how does the IC50 [16] read?
**A.** Its IC50 is 2.07 µM.

**Q.** Which IC50 [17] does the source give for O=c1c2cc(O)c(O)cc2oc2cc(O)cc(O)c12 here?
**A.** Its IC50 is 9.2 µM.

**Q.** For CC#CCn1c(N2CCC[C@@H](N)C2)nc2c(C)c(=O)n(Cc3nc(C)c4c(F)cccc4n3)c(=O)n21, which IC50 [12] is on record?
**A.** Its IC50 is 0.0005 µM.

**Q.** With O=c1[nH]ncn1-c1ccc(-c2ccc(N3CCNCC3)nc2)cc1 as the molecule, how does the EC50 [18] read?
**A.** The EC50 was 0.0028 µM.
